Test results as given in US11377425B1, “Small molecule modulators of IL-17” (LEO Pharma A/S, priority 2018, dated 2022).

Molecular target: T1, human IL-17AA (Homo sapiens, UniProt Q16552)
T1 construct: host or cells: HEK (human embryonic kidney) cells
T1 sequence (Q16552 24-155): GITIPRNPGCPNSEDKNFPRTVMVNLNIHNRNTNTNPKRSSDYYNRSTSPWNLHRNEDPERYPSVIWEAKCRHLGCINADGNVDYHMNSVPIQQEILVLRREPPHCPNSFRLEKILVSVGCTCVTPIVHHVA
Assay: IL-8 release assay in human epithelial keratinocytes adult (HEKa)
Type: cell-based
Conditions: HEKa cells, 3 ng/mL HEK-human IL-17AA + 10 ng/mL human TNFalpha; read-out: Rel EC50 IL-8 release assay
Procedure, shortened: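 Adult human epidermal keratinocytes stimulated 68-72 h at 37 °C with 3 ng/mL HEK-derived human IL-17AA plus 10 ng/mL TNF-alpha (final) in the presence of compound; TNF-alpha alone defines 100% inhibition. Secreted IL-8 measured by HTRF as percent of controls; relative IC50/Emax from four-parameter fit (r^2>0.9), cytotoxicity by PrestoBlue.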

SMILES	EC50 [nM]
CCn1nccc1C(=O)N[C@@H](CC1CCCCC1)C(=O)Nc1ccc(-c2c(C)n[nH]c2C)cc1 [Example 16, N-[(1S)-1-(cyclohexylmethyl)-2-[4-(3,5-dimethyl-1H-pyrazol-4-yl)anilino]-2-oxo-ethyl]-2-ethyl-pyrazole-3-carboxamide]	100 to 1000
CCn1nccc1C(=O)N[C@H](C(=O)Nc1ccc(-c2c(C)n[nH]c2C)cc1)C1CCC(F)(F)CC1 [Example 18, N-[(1S)-1-(4,4-difluorocyclohexyl)-2-[4-(3,5-dimethyl-1H-pyrazol-4-yl)anilino]-2-oxo-ethyl]-2-ethyl-pyrazole-3-carboxamide]	100 to 1000
Cc1n[nH]c(C)c1-c1ccc(NC(=O)[C@@H](NC(=O)c2ccnn2C)[C@H]2CCCC(F)(F)C2)cc1 [Example 19, N-[(1S)-1-[(1S)-3,3-difluorocyclohexyl]-2-[4-(3,5-dimethyl-1H-pyrazol-4-yl)anilino]-2-oxo-ethyl]-2-methyl-pyrazole-3-carboxamide]	100 to 1000
CCn1nccc1C(=O)N[C@H](C(=O)Nc1ccc(-c2c(C)n[nH]c2C)cc1)[C@H]1CCCC(F)(F)C1 [Example 22, N-[(1S)-1-[(1S)-3,3-difluorocyclohexyl]-2-[4-(3,5-dimethyl-1H-pyrazol-4-yl)anilino]-2-oxo-ethyl]-2-ethyl-pyrazole-3-carboxamide]	100 to 1000
Cc1n[nH]c(C)c1-c1ccc(NC(=O)[C@H](Cc2ccccc2Cl)NC(=O)c2ccnn2C(C)C)cc1 [Example 24]	100 to 1000
Cc1n[nH]c(C)c1-c1ccc(NC(=O)[C@H](Cc2ccccc2Cl)NC(=O)c2ccnn2C)cc1 [Example 25]	> 1000
Cc1n[nH]c(C)c1-c1ccc(NC(=O)[C@@H](NC(=O)c2ccnn2CC(F)(F)F)C2CCCCC2)cc1 [Example 29]	100 to 1000
Cc1n[nH]c(C)c1-c1ccc(NC(=O)[C@@H](NC(=O)c2ccnn2C)[C@H]2CCOc3ccccc32)cc1 [Example 34, N-[(1S)-1-[(4S)-chroman-4-yl]-2-[4-(3,5-dimethyl-1H-pyrazol-4-yl)anilino]-2-oxo-ethyl]-2-methyl-pyrazole-3-carboxamide]	100 to 1000
Cc1n[nH]c(C)c1-c1ccc(NC(=O)[C@@H](NC(=O)c2ccnn2C)C(C)C)cc1 [Example 42, N-[(1S)-1-[[4-(3,5-dimethyl-1H-pyrazol-4-yl)phenyl]carbamoyl]-2-methyl-propyl]-2-methyl-pyrazole-3-carboxamide; 2,2,2-trifluoroacetic acid]	> 1000
CC[C@H](C)[C@H](NC(=O)c1ccnn1C)C(=O)Nc1ccc(-c2c(C)n[nH]c2C)cc1 [Example 43, N-[(1S,2S)-1-[[4-(3,5-dimethyl-1H-pyrazol-4-yl)phenyl]carbamoyl]-2-methyl-butyl]-2-methyl-pyrazole-3-carboxamide]	100 to 1000
Cc1n[nH]c(C)c1-c1ccc(NC(=O)[C@H](Cc2ccccc2)NC(=O)c2ccnn2C)cc1 [Example 44, N-[(1S)-1-benzyl-2[4-(3,5-dimethyl-1H-pyrazol-4-yl)anilino]-2-oxo-ethyl]-2-methyl-pyrazole-3-carboxamide]	> 1000
Cc1n[nH]c(C)c1-c1ccc(NC(=O)[C@H](Cc2ccc(O)cc2)NC(=O)c2ccnn2C)cc1 [Example 45, N-[(1S)-2-[4-(3,5-dimethyl-1H-pyrazol-4-yl)anilino]-1-[(4-hydroxyphenyl)methyl]-2-oxo-ethyl]-2-methyl-pyrazole-3-carboxamide]	> 1000
Cc1n[nH]c(C)c1-c1ccc(NC(=O)[C@@H](NC(=O)c2ccnn2CCO)C2CCCCC2)cc1 [Example 46, N-[(1S)-1-cyclohexyl-2-[4-(3,5-dimethyl-1H-pyrazol-4-yl)anilino]-2-oxo-ethyl]-2-(2-hydroxyethyl)pyrazole-3-carboxamide]	100 to 1000
Cc1n[nH]c(C)c1-c1ccc(NC(=O)[C@@H](NC(=O)c2ccnn2C(C)C)[C@H]2CCOc3ccccc32)cc1 [Example 47, N-[(1S)-1-[(4S)-chroman-4-yl]-2-[4-(3,5-dimethyl-1H-pyrazo1-4-yl)anilino]-2-oxo-ethyl]-2-isopropyl-pyrazole-3-carboxamide]	< 100
Cc1n[nH]c(C)c1-c1ccc(NC(=O)[C@@H](NC(=O)c2cnc(C)n2C)C2CCCCC2)cc1 [Example 48, N-[(1S)-1-cyclohexyl-2-[4-(3,5-dimethyl-1H-pyrazol-4-yl)anilino]-2-oxo-ethyl]-2,3-dimethyl-imidazole-4-carboxamide]	> 1000
Cc1n[nH]c(C)c1-c1ccc(NC(=O)[C@@H](NC(=O)c2cncn2C)C2CCCCC2)cc1 [Example 49, N-[(1S)-1-cyclohexyl-2-[4-(3,5-dimethyl-1H-pyrazol-4-yl)anilino]-2-oxo-ethyl]-3-methyl-imidazole-4-carboxamide]	> 1000
Cc1n[nH]c(C)c1-c1ccc(NC(=O)[C@@H](NC(=O)c2c(C)ncn2C)C2CCCCC2)cc1 [Example 50, N-[(1S)-1-cyclohexyl-2-[4-(3,5-dimethyl-1H-pyrazol-4-yl)anilino]-2-oxo-ethyl]-3,5-dimethyl-imidazole-4-carboxamide]	> 1000

Continued, values first:

EC50 [nM]	SMILES
100 to 1000	Cc1n[nH]c(C)c1-c1ccc(NC(=O)[C@H](CC2CCCCC2)NC(=O)c2ccnn2C(C)C)cc1 [Example 17, N-[(1S)-1-(cyclohexylmethyl)-2-[4-(3,5-dimethyl-1H-pyrazol-4-yl)anilino]-2-oxo-ethyl]-2-isopropyl-pyrazole-3-carboxamide]
< 100	Cc1n[nH]c(C)c1-c1ccc(NC(=O)[C@@H](NC(=O)c2ccnn2C(C)C)[C@H]2CCCC(F)(F)C2)cc1 [Example 23, N-[(1S)-1-[(1S)-3,3-difluorocyclohexyl]-2-[4-(3,5-dimethyl-1H-pyrazol-4-yl)anilino]-2-oxo-ethyl]-2-isopropyl-pyrazole-3-carboxamide]
100 to 1000	Cc1n[nH]c(C)c1-c1ccc(NC(=O)[C@@H](NC(=O)c2ccnn2C2CC2)C2CCCCC2)cc1 [Example 27, N-[(1S)-1-cyclohexyl-2-[4-(3,5-dimethyl-1H-pyrazol-4-yl)anilino]-2-oxo-ethyl]-2-cyclopropyl-pyrazole-3-carboxamide]
100 to 1000	Cc1n[nH]c(C)c1-c1ccc(NC(=O)[C@@H](NC(=O)c2ccnn2C(F)F)C2CCCCC2)cc1 [Example 28, N-[(1S)-1-cyclohexyl-2-[4-(3,5-dimethyl-1H-pyrazol-4-yl)anilino]-2-oxo-ethyl]-2-(difluoromethyl)pyrazole-3-carboxamide]
100 to 1000	Cc1n[nH]c(C)c1-c1ccc(NC(=O)C(NC(=O)c2ccnn2C)C(C2CC2)C2CC2)cc1 (stereo not shown) [Example 30, N-[1-(dicyclopropylmethyl)-2-[4-(3,5-dimethyl-1 pyrazol-4-yl)anilino]-2-oxo-ethyl]-2-methyl-pyrazole-3-carboxamide]
< 100	CCn1nccc1C(=O)N[C@H](C(=O)Nc1ccc(-c2c(C)n[nH]c2C)cc1)C(C1CCC1)C1CCC1 [Example 36]
< 100	Cc1n[nH]c(C)c1-c1ccc(NC(=O)[C@@H](NC(=O)c2ccnn2C(C)C)C(C2CCC2)C2CCC2)cc1 [Example 39]
< 100	Cc1n[nH]c(C)c1-c1ccc(NC(=O)[C@@H](NC(=O)c2ccnn2C(C)C)[C@H]2CCCC3(CC3)C2)cc1 [Example 41, N-[(1S)-2-[4-(3,5-dimethyl-1H-pyrazol-4-yl)anilino]-2-oxo-1-[(7S)-spiro[2.5]octan-7-yl]ethyl]-2-isopropyl-pyrazole-3-carboxamide]
